Patent publication US8598344B2, “CDKI pathway inhibitors and uses thereof” (Senex Biotechnology, priority 2009, dated 2013)
Like-named read-outs stand apart in the source and are kept apart here.

Columns and labels:
[1] = tested on: induction of transcription by p21 (CDKI pathway, CMV promoter-GFP) in HT1080 fibrosarcoma cells; assay: Cellular assay for CDKI pathway inhibition: CMV-GFP induction by IPTG-inducible p21 in HT1080 reporter cells; assay type: cell-based, human
Procedure: Briefly, the reporter cell line described in the above-referenced application, which carries IPTG (isopropyl-β-thio-galactoside)-inducible p21 gene together with a p21-inducible promoter driving the expression of Green Fluorescent Protein (GFP) was plated in 96-well plates, at 2000 cells per well for the no-IPTG arm of the assay and at 5000 cells per well for the IPTG arm of the assay. To induce the maximal levels of p21, IPTG was added to 50 μM concentration. Serial 2-fold dilutions of the tested compounds were added in quadruplicates to wells with and without IPTG, ˜10 min after IPTG addition.
This assay is based on the induction of green fluorescent protein (GFP) expression from the cytomegalovirus (CMV) promoter in human HT1080 fibrosarcoma cells that express CDKI p21 from an isopropyl-(3-thio-galactoside (IPTG)-inducible promoter. The compound activity as a CDKI pathway inhibitor is measured by its ability to prevent the stimulation of the CMV promoter upon the addition of p21-inducing IPTG. CMV promoter activity is measured by the ratio of GFP fluorescence to the relative cell number, as determined by staining cellular DNA with Hoechst 33342. This assay was conducted in two modes. […]

[2] = target: T1, CDK19 (Homo sapiens, UniProt Q9BWU1); assay: KinomeScan competition binding assay; conditions: read-out: CDK19 inhibition (Kd)
T1 construct: purchased KinomeScan, a division of Ambit Biosciences
T1 sequence (Q9BWU1 whole entry): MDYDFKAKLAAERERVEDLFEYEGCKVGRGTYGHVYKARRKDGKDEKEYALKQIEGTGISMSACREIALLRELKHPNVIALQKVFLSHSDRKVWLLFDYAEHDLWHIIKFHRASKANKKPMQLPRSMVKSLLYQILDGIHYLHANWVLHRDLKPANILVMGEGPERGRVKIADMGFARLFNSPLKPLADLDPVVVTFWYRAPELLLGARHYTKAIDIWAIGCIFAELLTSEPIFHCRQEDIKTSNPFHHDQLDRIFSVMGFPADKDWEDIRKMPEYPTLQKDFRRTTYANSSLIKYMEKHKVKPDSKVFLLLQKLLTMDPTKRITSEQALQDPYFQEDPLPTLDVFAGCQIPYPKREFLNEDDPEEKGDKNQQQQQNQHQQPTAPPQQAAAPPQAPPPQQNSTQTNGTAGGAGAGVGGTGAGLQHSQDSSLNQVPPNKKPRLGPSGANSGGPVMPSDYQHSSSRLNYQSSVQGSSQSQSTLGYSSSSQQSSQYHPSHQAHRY
Source text: (§1) This similarity led us to test SNX14 for the ability to inhibit 285 kinases, using the services of KinaseProfiler of Millipore Corporation (285 kinases). […] The KINOMEscan assay has been described in detail in Fabian et al., Nat. Biotechnol. 23: 329 (2005) and Karaman et al., Nat. Biotechnol. 26: 127 (2008).
(§2) The KinomeScan assay is based on a competition binding assay that quantitatively measures the ability of a compound to compete with an immobilized, ATP site directed ligand. The assay is performed by combining three components: DNA-tagged kinase; immobilized ligand; and a test compound. The ability of the test compound to compete with the immobilized ligand is measured via quantitative PCR of the DNA tag. […] The CDKs tested by Millipore for inhibition with SNX14 included CDK1, CDK2, CDK3, CDK5, CDK7 and CDK9; none of these were inhibited to less than 49 percent of control (POC) activity. The CDKs tested by KinomeScan for the effect of Compound 1 included CDK2, CDK3, CDK4, CDK5, CDK7, CDK8, CDK9 and CDK19; aside from CDK8 and CDK19, the strongest inhibited CDK was CDK7 (33% POC binding). To determine the inhibition of which kinases correlates with the biological activity of SNX2-class compounds, we tested eight additional compounds of the SNX2 family, which gave different IC50 values in the cellular assays, for the ability to affect 24 kinases that were most susceptible to compound 1, through the services of KinomeScan. […] We have also determined the binding constant (Kd) for SNX14, compound 1, compound 20, compound 26, compound 43 and compound 14 in kinase assays for CDK8 and CDK19 (Table 1).

[3] = target: T2, CDK8 (Homo sapiens, UniProt P49336); assay: KinomeScan competition binding assay; conditions: read-out: CDK8 inhibition (Kd)
T2 construct: purchased KinomeScan, a division of Ambit Biosciences
Source text: as §1, §2

[4] = target: T3, CDK1 (Homo sapiens, UniProt P06493); assay: KinaseProfiler (Millipore) kinase inhibition; assay type: biochemical; conditions: 10 μM
T3 construct: purchased KinaseProfiler of Millipore Corporation
T3 sequence (P06493 whole entry): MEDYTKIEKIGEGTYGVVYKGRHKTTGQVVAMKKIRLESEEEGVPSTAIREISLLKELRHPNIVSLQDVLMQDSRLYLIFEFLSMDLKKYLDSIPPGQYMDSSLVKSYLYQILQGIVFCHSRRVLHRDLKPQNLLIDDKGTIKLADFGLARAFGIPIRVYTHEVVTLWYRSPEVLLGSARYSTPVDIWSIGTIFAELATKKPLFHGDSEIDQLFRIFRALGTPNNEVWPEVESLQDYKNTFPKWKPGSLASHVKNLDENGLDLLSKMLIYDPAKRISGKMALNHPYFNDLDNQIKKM
T3 sequence (P14635 whole entry partner): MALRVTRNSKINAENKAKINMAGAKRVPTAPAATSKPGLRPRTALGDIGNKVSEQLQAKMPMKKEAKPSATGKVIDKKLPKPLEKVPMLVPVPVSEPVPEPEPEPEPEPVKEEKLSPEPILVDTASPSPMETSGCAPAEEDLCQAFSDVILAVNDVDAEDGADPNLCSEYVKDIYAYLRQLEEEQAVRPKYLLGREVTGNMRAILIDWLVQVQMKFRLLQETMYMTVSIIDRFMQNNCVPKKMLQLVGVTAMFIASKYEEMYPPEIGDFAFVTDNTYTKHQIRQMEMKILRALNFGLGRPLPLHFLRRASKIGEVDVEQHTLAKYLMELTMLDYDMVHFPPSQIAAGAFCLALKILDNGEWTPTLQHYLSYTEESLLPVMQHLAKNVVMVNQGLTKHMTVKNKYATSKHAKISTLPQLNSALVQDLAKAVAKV
Source text: as §1, §2

[5] = target: T4, CDK2 (Homo sapiens, UniProt P24941); assay: KinaseProfiler (Millipore) kinase inhibition; assay type: biochemical; conditions: 10 μM
T4 construct: purchased KinaseProfiler of Millipore Corporation
Source text: as §1, §2

[6] = target: T5, CDK3 (Homo sapiens, UniProt Q00526); assay: KinaseProfiler (Millipore) kinase inhibition; assay type: biochemical; conditions: 10 μM
T5 construct: purchased KinaseProfiler of Millipore Corporation
T5 sequence (Q00526 whole entry): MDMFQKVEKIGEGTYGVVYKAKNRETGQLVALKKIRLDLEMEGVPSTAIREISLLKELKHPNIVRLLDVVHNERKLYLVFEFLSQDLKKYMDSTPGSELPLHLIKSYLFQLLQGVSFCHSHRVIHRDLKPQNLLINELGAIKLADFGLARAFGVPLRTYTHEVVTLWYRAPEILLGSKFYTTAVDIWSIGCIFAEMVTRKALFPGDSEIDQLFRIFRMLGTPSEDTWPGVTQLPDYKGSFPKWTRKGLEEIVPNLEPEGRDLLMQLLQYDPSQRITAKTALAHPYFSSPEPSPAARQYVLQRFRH
T5 sequence (P24864 whole entry partner): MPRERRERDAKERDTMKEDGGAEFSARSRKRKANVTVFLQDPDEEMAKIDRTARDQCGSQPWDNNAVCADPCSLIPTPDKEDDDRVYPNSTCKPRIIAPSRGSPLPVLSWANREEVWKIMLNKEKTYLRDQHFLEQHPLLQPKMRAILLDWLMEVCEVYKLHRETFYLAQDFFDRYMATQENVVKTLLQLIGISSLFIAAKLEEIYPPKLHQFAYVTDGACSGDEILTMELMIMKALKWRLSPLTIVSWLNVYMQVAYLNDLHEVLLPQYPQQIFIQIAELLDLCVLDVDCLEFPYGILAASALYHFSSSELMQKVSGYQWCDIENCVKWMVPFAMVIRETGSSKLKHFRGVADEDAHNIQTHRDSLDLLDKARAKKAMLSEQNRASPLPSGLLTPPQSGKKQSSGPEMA
Source text: as §1, §2

[7] = target: T6, CDK5 (Homo sapiens, UniProt Q00535); assay: KinaseProfiler (Millipore) kinase inhibition; assay type: biochemical; conditions: 10 μM
T6 construct: purchased KinaseProfiler of Millipore Corporation
Source text: as §1, §2

[8] = target: T7, CDK9 (Homo sapiens, UniProt P50750); assay: KinaseProfiler (Millipore) kinase inhibition; assay type: biochemical; conditions: 10 μM
T7 construct: purchased KinaseProfiler of Millipore Corporation
Source text: as §1, §2

[9] = target: CDK7 (Homo sapiens, UniProt P50613); assay: KinaseProfiler (Millipore) kinase inhibition; assay type: biochemical; design: purchased KinaseProfiler of Millipore Corporation; conditions: 10 μM
Source text: as §1
as §2, with “binding).” for “binding). To determine the inhibition of which kinases correlates with the biological activity of SNX2-class compounds, we tested eight additional compounds of the SNX2 family, which gave different IC50 values in the cellular assays, for the ability to affect 24 kinases that were most susceptible to compound 1, through the services of KinomeScan.”

[10] = tested on: human umbilical vein endothelial cells (HUVECs); conditions: Aoki et al., 2007; read-out: IC50, proliferation of HUVECs; cited from earlier work
[11] = tested on: several other types of human cells; conditions: Aoki et al., 2007; read-out: antiproliferative activity against several other types of human cells; cited from earlier work
[12] = target: T1, CDK19; conditions: cited from earlier work
[13] = target: T8, CLK4 (Homo sapiens, UniProt Q9HAZ1); conditions: 10 μM; data from Cee et al. (2009); cited from earlier work
T8 construct: purchased KinomeScan, a division of Ambit Biosciences

[14] = target: T9, CIT (Homo sapiens, UniProt O14578); conditions: 10 μM; data from Cee et al. (2009); cited from earlier work
T9 construct: purchased KinomeScan, a division of Ambit Biosciences

[15] = target: T10, ROCK2 (Homo sapiens, UniProt O75116); conditions: cited from earlier work
T10 construct: purchased KinomeScan, a division of Ambit Biosciences
T10 sequence (O75116 whole entry): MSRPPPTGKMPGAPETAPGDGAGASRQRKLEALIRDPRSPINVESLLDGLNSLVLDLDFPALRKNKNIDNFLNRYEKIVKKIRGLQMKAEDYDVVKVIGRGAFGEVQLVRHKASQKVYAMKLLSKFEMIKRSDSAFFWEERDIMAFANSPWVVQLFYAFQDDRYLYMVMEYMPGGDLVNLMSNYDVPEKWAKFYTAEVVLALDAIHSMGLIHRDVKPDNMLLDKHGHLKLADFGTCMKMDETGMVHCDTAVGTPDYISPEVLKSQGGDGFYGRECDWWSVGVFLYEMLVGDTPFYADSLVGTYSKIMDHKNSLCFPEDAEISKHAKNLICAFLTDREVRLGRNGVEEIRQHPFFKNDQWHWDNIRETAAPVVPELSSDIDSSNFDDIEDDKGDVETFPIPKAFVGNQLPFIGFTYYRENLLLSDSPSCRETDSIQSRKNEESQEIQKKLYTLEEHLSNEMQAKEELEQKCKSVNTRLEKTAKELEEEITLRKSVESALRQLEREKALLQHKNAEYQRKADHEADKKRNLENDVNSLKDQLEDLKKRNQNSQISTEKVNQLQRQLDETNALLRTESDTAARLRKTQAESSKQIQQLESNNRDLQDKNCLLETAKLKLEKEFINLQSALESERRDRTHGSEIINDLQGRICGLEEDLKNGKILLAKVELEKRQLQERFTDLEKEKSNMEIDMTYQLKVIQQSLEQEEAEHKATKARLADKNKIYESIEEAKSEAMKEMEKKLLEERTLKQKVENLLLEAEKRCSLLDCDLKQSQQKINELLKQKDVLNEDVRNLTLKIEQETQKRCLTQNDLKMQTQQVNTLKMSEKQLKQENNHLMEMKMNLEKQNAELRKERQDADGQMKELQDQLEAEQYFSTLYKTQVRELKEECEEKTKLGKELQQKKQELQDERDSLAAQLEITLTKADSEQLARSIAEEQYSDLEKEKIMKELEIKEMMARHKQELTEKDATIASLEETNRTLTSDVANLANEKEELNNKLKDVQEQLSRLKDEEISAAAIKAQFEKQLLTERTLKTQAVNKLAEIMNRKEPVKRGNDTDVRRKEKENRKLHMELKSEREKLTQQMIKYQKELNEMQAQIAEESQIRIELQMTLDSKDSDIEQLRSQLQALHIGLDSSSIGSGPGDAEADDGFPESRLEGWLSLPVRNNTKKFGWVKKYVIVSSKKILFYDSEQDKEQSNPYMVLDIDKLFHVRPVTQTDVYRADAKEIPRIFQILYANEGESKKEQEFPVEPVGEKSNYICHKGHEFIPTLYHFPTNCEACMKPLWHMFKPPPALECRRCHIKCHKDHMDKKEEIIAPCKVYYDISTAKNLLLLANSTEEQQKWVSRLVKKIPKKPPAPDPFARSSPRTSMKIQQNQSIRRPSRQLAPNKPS

[16] = target: T11, LTK (Homo sapiens, UniProt P29376); conditions: 10 μM; data from Cee et al. (2009); cited from earlier work
T11 construct: purchased KinomeScan, a division of Ambit Biosciences

[17] = target: T12, ALK (Homo sapiens, UniProt Q9UM73); conditions: 10 μM; data from Cee et al. (2009); cited from earlier work
T12 construct: purchased KinomeScan, a division of Ambit Biosciences

[18] = target: T13, PIM2 (Homo sapiens, UniProt Q9P1W9); conditions: 10 μM; data from Cee et al. (2009); cited from earlier work
T13 construct: purchased KinomeScan, a division of Ambit Biosciences
T13 sequence (Q9P1W9 whole entry): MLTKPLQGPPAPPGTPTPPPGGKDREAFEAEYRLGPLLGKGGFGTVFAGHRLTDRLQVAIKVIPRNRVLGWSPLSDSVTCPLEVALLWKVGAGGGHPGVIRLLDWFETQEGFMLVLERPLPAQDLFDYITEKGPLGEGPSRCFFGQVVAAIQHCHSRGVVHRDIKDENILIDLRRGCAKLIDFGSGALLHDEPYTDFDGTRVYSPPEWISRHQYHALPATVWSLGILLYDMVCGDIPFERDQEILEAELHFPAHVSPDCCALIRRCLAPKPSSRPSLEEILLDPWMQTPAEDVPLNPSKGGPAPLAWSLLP

[19] = target: T14, PKACa (Homo sapiens, UniProt P17612); conditions: 10 μM; data from Cee et al. (2009); cited from earlier work
T14 construct: purchased KinomeScan, a division of Ambit Biosciences

[20] = target: T15, PKACb (Homo sapiens, UniProt P22694); conditions: 10 μM; data from Cee et al. (2009); cited from earlier work
T15 construct: purchased KinomeScan, a division of Ambit Biosciences

[21] = target: T16, MET (Homo sapiens, UniProt P08581); conditions: 10 μM; data from Cee et al. (2009); cited from earlier work
T16 construct: purchased KinomeScan, a division of Ambit Biosciences

[22] = target: T17, PRKG2 (Homo sapiens, UniProt Q13237); conditions: 10 μM; data from Cee et al. (2009); cited from earlier work
T17 construct: purchased KinomeScan, a division of Ambit Biosciences

[23] = target: T18, RIOK2 (Homo sapiens, UniProt Q9BVS4); conditions: 10 μM; data from Cee et al. (2009); cited from earlier work
T18 construct: purchased KinomeScan, a division of Ambit Biosciences

[24] = target: T19, ROCK1 (Homo sapiens, UniProt Q13464); conditions: cited from earlier work
T19 construct: purchased KinomeScan, a division of Ambit Biosciences
T19 sequence (Q13464 whole entry): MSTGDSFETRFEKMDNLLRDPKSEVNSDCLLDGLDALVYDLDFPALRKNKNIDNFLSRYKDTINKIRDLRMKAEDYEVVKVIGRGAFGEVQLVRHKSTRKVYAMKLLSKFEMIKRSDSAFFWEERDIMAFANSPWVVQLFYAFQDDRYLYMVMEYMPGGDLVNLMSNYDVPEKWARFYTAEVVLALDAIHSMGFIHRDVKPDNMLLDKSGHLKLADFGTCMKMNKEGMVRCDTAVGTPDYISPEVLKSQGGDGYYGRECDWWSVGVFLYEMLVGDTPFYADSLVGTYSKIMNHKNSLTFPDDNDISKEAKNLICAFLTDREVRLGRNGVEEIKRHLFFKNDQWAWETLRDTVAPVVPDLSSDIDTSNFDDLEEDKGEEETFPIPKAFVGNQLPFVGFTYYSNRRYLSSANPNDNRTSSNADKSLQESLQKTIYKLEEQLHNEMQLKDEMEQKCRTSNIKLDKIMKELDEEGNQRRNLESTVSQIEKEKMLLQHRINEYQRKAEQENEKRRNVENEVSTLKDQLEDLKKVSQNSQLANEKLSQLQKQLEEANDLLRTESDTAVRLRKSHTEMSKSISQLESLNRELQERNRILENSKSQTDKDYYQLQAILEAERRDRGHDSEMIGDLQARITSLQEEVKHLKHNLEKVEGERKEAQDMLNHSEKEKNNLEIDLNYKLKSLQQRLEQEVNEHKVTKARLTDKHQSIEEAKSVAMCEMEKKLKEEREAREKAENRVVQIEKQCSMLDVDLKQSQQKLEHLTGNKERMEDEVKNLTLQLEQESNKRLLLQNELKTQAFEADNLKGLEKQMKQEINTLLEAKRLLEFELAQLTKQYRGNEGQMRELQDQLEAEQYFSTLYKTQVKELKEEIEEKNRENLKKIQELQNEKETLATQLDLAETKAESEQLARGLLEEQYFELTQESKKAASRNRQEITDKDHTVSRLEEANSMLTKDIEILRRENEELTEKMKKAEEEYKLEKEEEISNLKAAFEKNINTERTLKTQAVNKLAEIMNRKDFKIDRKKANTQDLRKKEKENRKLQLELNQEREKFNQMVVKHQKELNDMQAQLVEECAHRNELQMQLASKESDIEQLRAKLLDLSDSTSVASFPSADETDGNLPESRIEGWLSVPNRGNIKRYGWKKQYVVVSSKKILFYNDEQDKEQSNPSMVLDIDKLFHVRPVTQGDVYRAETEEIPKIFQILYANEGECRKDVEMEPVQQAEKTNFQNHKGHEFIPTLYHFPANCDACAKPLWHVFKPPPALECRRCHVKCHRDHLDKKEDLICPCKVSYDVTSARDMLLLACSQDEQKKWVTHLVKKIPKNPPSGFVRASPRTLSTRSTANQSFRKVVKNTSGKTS

[25] = target: T20, ROS1 (Homo sapiens, UniProt P08922); conditions: 10 μM; data from Cee et al. (2009); cited from earlier work
T20 construct: purchased KinomeScan, a division of Ambit Biosciences

[26] = target: T21, JNK1 (Homo sapiens, UniProt P45983); conditions: 10 μM; data from Cee et al. (2009); cited from earlier work
T21 construct: purchased KinomeScan, a division of Ambit Biosciences

[27] = 10 μM, data from Cee et al. (2009)

CC(C)Nc1ncnc2ccc(I)cc12 [SNX14]
IC50 ([1]; Table 1, IC50 calculated on the basis of the maximal inhibition produced by the highest doses, IPTG mode (50 μM or 2 μM) not stated, read-out: Cell-based assay (IC50)): 6430 nM
Kd [2]: 3800 nM
Kd [3]: 10000 nM
percent of control (POC) activity, CDK1 [4]: ≥ 49% of control (POC)
percent of control (POC) activity, CDK2 [5]: ≥ 49% of control (POC)
percent of control (POC) activity, CDK3 [6]: ≥ 49% of control (POC)
percent of control (POC) activity, CDK5 [7]: ≥ 49% of control (POC)
percent of control (POC) activity, CDK9 [8]: ≥ 49% of control (POC)
percent of control (POC) activity, CDK7 [9]: ≥ 49% of control (POC)

Ic1ccc2ncnc(NCCc3ccccc3)c2c1 [compound 3]
IC50 ([1]; read-out: IC50, p21 induced by 8 μM IPTG, 8 μM IPTG, 72 hours): 1850 nM

COc1cc2ncnc(Nc3ccc(F)c(Cl)c3)c2cc1OCCCN1CCOCC1 [gefitinib, reference compound]
CDKI pathway inhibition [1]: inactive

cortistatin A
IC50 [10]: 1.8 nM
IC50 [11]: 6000 to 7000 nM
POC, CDK19 [12, 27]: 0.1 POC
Kd ([12]; Cee et al. (2009)): 10 nM
POC, CLK4 [13]: 26 POC
POC, CIT [14]: 28 POC
POC, ROCK2 (ROCK II) [15, 27]: 0 POC
Kd ([15]; Cee et al. (2009), read-out: Kd ROCK II): 220 nM
POC, LTK [16]: 2.9 POC
POC, ALK [17]: 4.4 POC
POC, PIM2 [18]: 4.4 POC
POC, PKACa [19]: 8.7 POC
POC, PKACb [20]: 13 POC
POC, MET [21]: 18 POC
POC, PRKG2 [22]: 21 POC
POC, RIOK2 [23]: 21 POC
POC, ROCK1 [24, 27]: 21 POC
Kd ([24]; Cee et al. (2009), read-out: Kd ROCK I): 250 nM
POC, ROS1 [25]: 26 POC
POC, JNK1 [26]: 29 POC
